# Source: patent US20240092835A1, “NOVEL PEPTIDES CAPABLE OF ALTERING NK CELL ACTIVITY” (Massachusetts Institute of Technology, priority 2022, published 2024)
# What was measured:
# Assay type in all cases: cell-based, human
# [1] = tested on: NKG2A−/NKG2C+ NK cells; experiment: NK cell activation markers in NKG2A-/NKG2C+ NK cells incubated with peptide and K562 expressing HLA-E (activation); details: NKG2A-/NKG2C+ NK cells, K562/HLA-E
# Protocol: (§1) A human immortalized myelogenous leukemia cell line (K562), which expresses HLA-E was incubated with novel peptides (Table 1) derived from the human proteome or human cytomegalovirus proteome. […] Controls assessments were also performed using NKG2A−/NKG2C− cells (Tables 10-13). Inhibition was indicated by a decrease in percent cells positive for cell surface markers, while activation was indicated by an increase in percent cells positive for cell surface markers.
# [2] = tested on: NKG2A+/NKG2C− NK cells; experiment: NK cell activation markers in NKG2A+/NKG2C- NK cells incubated with peptide and K562 expressing HLA-E (inhibition); details: NKG2A+/NKG2C- NK cells, K562/HLA-E
# Protocol: as §1
# [3] = tested on: NKG2A−/NKG2C− NK cells; experiment: NK cell activation markers in control NKG2A-/NKG2C- NK cells incubated with peptide and K562 expressing HLA-E
# Protocol: as §1
sequence,measurement,setting,value
"VMAPQSLLL [VMAPQSLLL (PQS), negative control peptide, reference compound]",percentage of CCL3+ NK cells,[1]; Trial 1,47%
same,percentage of CD107+ NK cells,[1]; Trial 1,25.2%
same,percentage of IFNG+ NK cells,[1]; Trial 1,10.6%
same,percentage of TNF+ NK cells,[1]; Trial 1,4.96%
same,percentage of CCL3+ NK cells,[1]; Trial 2,55.3%
same,percentage of CD107+ NK cells,[1]; Trial 2,32.8%
same,percentage of IFNG+ NK cells,[1]; Trial 2,12.7%
same,percentage of TNF+ NK cells,[1]; Trial 2,9.31%
same,percentage of CCL3+ NK cells,[1]; Trial 3,69.4%
same,percentage of CD107+ NK cells,[1]; Trial 3,58.6%
same,percentage of IFNG+ NK cells,[1]; Trial 3,40.7%
same,percentage of TNF+ NK cells,[1]; Trial 3,31.2%
same,percentage of CCL3+ NK cells,[1]; Trial 4,58.6%
same,percentage of CD107+ NK cells,[1]; Trial 4,53.6%
same,percentage of IFNG+ NK cells,[1]; Trial 4,35.6%
same,percentage of TNF+ NK cells,[1]; Trial 4,25.7%
same,percentage of CCL3+ NK cells,[1]; Trial 5,55.4%
same,percentage of CD107+ NK cells,[1]; Trial 5,43%
same,percentage of IFNG+ NK cells,[1]; Trial 5,19.9%
same,percentage of TNF+ NK cells,[1]; Trial 5,14.7%
same,percentage of CCL3+ NK cells,[1]; Trial 6,32.7%
same,percentage of CD107+ NK cells,[1]; Trial 6,22.3%
same,percentage of IFNG+ NK cells,[1]; Trial 6,10.3%
same,percentage of TNF+ NK cells,[1]; Trial 6,5.08%
same,percentage of CCL3+ NK cells,[2]; Trial 1,49.8%
same,percentage of CD107a+ NK cells,[2]; Trial 1,29.1%
same,percentage of IFNG+ NK cells,[2]; Trial 1,10.1%
same,percentage of TNF+ NK cells,[2]; Trial 1,2.95%
same,percentage of CCL3+ NK cells,[2]; Trial 2,70.6%
same,percentage of CD107a+ NK cells,[2]; Trial 2,47.4%
same,percentage of IFNG+ NK cells,[2]; Trial 2,27.3%
same,percentage of TNF+ NK cells,[2]; Trial 2,13.3%
same,percentage of CCL3+ NK cells,[2]; Trial 3,58.2%
same,percentage of CD107a+ NK cells,[2]; Trial 3,46.5%
same,percentage of IFNG+ NK cells,[2]; Trial 3,35.1%
same,percentage of TNF+ NK cells,[2]; Trial 3,18.8%
same,percentage of CCL3+ NK cells,[2]; Trial 4,50.7%
same,percentage of CD107a+ NK cells,[2]; Trial 4,40.7%
same,percentage of IFNG+ NK cells,[2]; Trial 4,23.1%
same,percentage of TNF+ NK cells,[2]; Trial 4,11.6%
same,percentage of CCL3+ NK cells,[2]; Trial 5,47.7%
same,percentage of CD107a+ NK cells,[2]; Trial 5,30.1%
same,percentage of IFNG+ NK cells,[2]; Trial 5,14.1%
same,percentage of TNF+ NK cells,[2]; Trial 5,6.1%
same,percentage of CCL3+ NK cells,[2]; Trial 6,31.3%
same,percentage of CD107a+ NK cells,[2]; Trial 6,24.4%
same,percentage of IFNG+ NK cells,[2]; Trial 6,8.37%
same,percentage of TNF+ NK cells,[2]; Trial 6,4.14%
same,percentage CCL3+ NK cells,[3]; Trial 1,35.1%
same,percentage CD107+ NK cells,[3]; Trial 1,24.1%
same,percentage TNF+ NK cells,[3]; Trial 1,3.46%
same,percentage of IFNG+ NK cells,[3]; Trial 1,14%
same,percentage CCL3+ NK cells,[3]; Trial 2,57.7%
same,percentage CD107+ NK cells,[3]; Trial 2,37.9%
same,percentage TNF+ NK cells,[3]; Trial 2,9.07%
same,percentage of IFNG+ NK cells,[3]; Trial 2,27.9%
same,percentage CCL3+ NK cells,[3]; Trial 3,59.4%
same,percentage CD107+ NK cells,[3]; Trial 3,53%
same,percentage TNF+ NK cells,[3]; Trial 3,22.6%
same,percentage of IFNG+ NK cells,[3]; Trial 3,48.3%
same,percentage CCL3+ NK cells,[3]; Trial 4,35%
same,percentage CD107+ NK cells,[3]; Trial 4,28%
same,percentage TNF+ NK cells,[3]; Trial 4,8.23%
same,percentage of IFNG+ NK cells,[3]; Trial 4,19%
same,percentage CCL3+ NK cells,[3]; Trial 5,34%
same,percentage CD107+ NK cells,[3]; Trial 5,24.4%
same,percentage TNF+ NK cells,[3]; Trial 5,8.67%
same,percentage of IFNG+ NK cells,[3]; Trial 5,18.6%
same,percentage CCL3+ NK cells,[3]; Trial 6,22.4%
same,percentage CD107+ NK cells,[3]; Trial 6,19.5%
same,percentage TNF+ NK cells,[3]; Trial 6,4.08%
same,percentage of IFNG+ NK cells,[3]; Trial 6,10%
"VMAPRTLIL [VMAPRTLIL (LIL), positive control peptide, reference compound]",percentage of CCL3+ NK cells,[1]; Trial 1,76.7%
same,percentage of CD107+ NK cells,[1]; Trial 1,74.1%
same,percentage of IFNG+ NK cells,[1]; Trial 1,64.1%
same,percentage of TNF+ NK cells,[1]; Trial 1,48.5%
same,percentage of CCL3+ NK cells,[1]; Trial 2,92%
same,percentage of CD107+ NK cells,[1]; Trial 2,87%
same,percentage of IFNG+ NK cells,[1]; Trial 2,79.8%
same,percentage of TNF+ NK cells,[1]; Trial 2,62.5%
same,percentage of CCL3+ NK cells,[1]; Trial 3,85.4%
same,percentage of CD107+ NK cells,[1]; Trial 3,85.3%
same,percentage of IFNG+ NK cells,[1]; Trial 3,78.1%
same,percentage of TNF+ NK cells,[1]; Trial 3,61.4%
same,percentage of CCL3+ NK cells,[1]; Trial 4,69%
same,percentage of CD107+ NK cells,[1]; Trial 4,73.4%
same,percentage of IFNG+ NK cells,[1]; Trial 4,59.7%
same,percentage of TNF+ NK cells,[1]; Trial 4,50.4%
same,percentage of CCL3+ NK cells,[1]; Trial 5,79.6%
same,percentage of CD107+ NK cells,[1]; Trial 5,79.9%
same,percentage of IFNG+ NK cells,[1]; Trial 5,72.5%
same,percentage of TNF+ NK cells,[1]; Trial 5,66.3%
same,percentage of CCL3+ NK cells,[1]; Trial 6,56.6%
same,percentage of CD107+ NK cells,[1]; Trial 6,63.2%
same,percentage of IFNG+ NK cells,[1]; Trial 6,45.9%
same,percentage of TNF+ NK cells,[1]; Trial 6,35.5%
same,percentage of CCL3+ NK cells,[2]; Trial 1,1.59%
same,percentage of CD107a+ NK cells,[2]; Trial 1,0.35%
same,percentage of IFNG+ NK cells,[2]; Trial 1,0%
same,percentage of TNF+ NK cells,[2]; Trial 1,0%
same,percentage of CCL3+ NK cells,[2]; Trial 2,14.4%
same,percentage of CD107a+ NK cells,[2]; Trial 2,2.73%
same,percentage of IFNG+ NK cells,[2]; Trial 2,0.59%
same,percentage of TNF+ NK cells,[2]; Trial 2,0.39%
same,percentage of CCL3+ NK cells,[2]; Trial 3,4.32%
same,percentage of CD107a+ NK cells,[2]; Trial 3,1.95%
same,percentage of IFNG+ NK cells,[2]; Trial 3,0.87%
same,percentage of TNF+ NK cells,[2]; Trial 3,0.46%
same,percentage of CCL3+ NK cells,[2]; Trial 4,0.75%
same,percentage of CD107a+ NK cells,[2]; Trial 4,0.77%
same,percentage of IFNG+ NK cells,[2]; Trial 4,0.08%
same,percentage of TNF+ NK cells,[2]; Trial 4,0.08%
same,percentage of CCL3+ NK cells,[2]; Trial 5,1.56%
same,percentage of CD107a+ NK cells,[2]; Trial 5,0.56%
same,percentage of IFNG+ NK cells,[2]; Trial 5,0.06%
same,percentage of TNF+ NK cells,[2]; Trial 5,0.06%
same,percentage of CCL3+ NK cells,[2]; Trial 6,0.92%
same,percentage of CD107a+ NK cells,[2]; Trial 6,0.92%
same,percentage of IFNG+ NK cells,[2]; Trial 6,0.05%
same,percentage of TNF+ NK cells,[2]; Trial 6,0.05%
same,percentage CCL3+ NK cells,[3]; Trial 1,31.4%
same,percentage CD107+ NK cells,[3]; Trial 1,24.4%
same,percentage TNF+ NK cells,[3]; Trial 1,3.46%
same,percentage of IFNG+ NK cells,[3]; Trial 1,15.5%
same,percentage CCL3+ NK cells,[3]; Trial 2,54%
same,percentage CD107+ NK cells,[3]; Trial 2,33.4%
same,percentage TNF+ NK cells,[3]; Trial 2,7.41%
same,percentage of IFNG+ NK cells,[3]; Trial 2,22.8%
same,percentage CCL3+ NK cells,[3]; Trial 3,46.1%
same,percentage CD107+ NK cells,[3]; Trial 3,43.2%
same,percentage TNF+ NK cells,[3]; Trial 3,13.6%
same,percentage of IFNG+ NK cells,[3]; Trial 3,36.7%
same,percentage CCL3+ NK cells,[3]; Trial 4,30.8%
same,percentage CD107+ NK cells,[3]; Trial 4,26.4%
same,percentage TNF+ NK cells,[3]; Trial 4,8.21%
same,percentage of IFNG+ NK cells,[3]; Trial 4,18.7%
same,percentage CCL3+ NK cells,[3]; Trial 5,23.8%
same,percentage CD107+ NK cells,[3]; Trial 5,17.9%
same,percentage TNF+ NK cells,[3]; Trial 5,4.32%
same,percentage of IFNG+ NK cells,[3]; Trial 5,12.1%
same,percentage CCL3+ NK cells,[3]; Trial 6,21.4%
same,percentage CD107+ NK cells,[3]; Trial 6,19%
same,percentage TNF+ NK cells,[3]; Trial 6,3.8%
same,percentage of IFNG+ NK cells,[3]; Trial 6,9.39%
